Measurements published in patent publication US20250281507A1, “METHODS OF TREATING NEPHROTIC SYNDROME” (The Research Institute at Nationwide Children's Hospital, priority 2021, published 2025).
“And” between values parts separate entries of the source, which are not always exact repeats. Equal values may be shown once.

Tests used:
Type in all cases: in vivo, human
[1] = test system: children with NS; assay: Serum albumin before and after addition of pioglitazone; settings: for % S Alb increase (0-1 mo) / % S Alb increase (5-7 mo): vs 0-1 mo pre-PIO; for serum albumin increase, range / mean serum albumin: Responders; for mean serum albumin: pre 2.5 g/dL
Excerpt: (§1) In the following clinical studies, the efficacy and safety of adding pioglitazone to reduce proteinuria in children with NS was examined. All children with NS identified worldwide to have been treated with pioglitazone were included, with no patients excluded. Each patient had pioglitazone added to their other NS medications at the discretion of their treating pediatric nephrologist. All patient records were reviewed in a de-identified manner, with prior ethics committee approval at each institution. Data were analyzed based on defined time periods before and after the addition of pioglitazone. Patients were defined as having responded to pioglitazone (i.e., Responders) if their urine protein to creatinine ratio (UPCR, mg/mg) decreased from the period 0-1 month pre-pioglitazone to the period 0-1 month post-pioglitazone. Glomerular filtration rate estimation (eGFR) in patients <18 years was calculated using the revised Schwartz equation. In patients >18 years, eGFR was calculated as the mean of the revised Schwartz and CKD-EPI creatinine equations. Quantitative data, such as patient age, duration of NS, pioglitazone dosage, and outcomes of UPCR, TIS, and serum albumin, were summarized as means (standard errors of mean), while categorical data such as renal survival status were summarized as frequency (percent). Due to a small sample size, Responders and Non-responders were compared using Wilcoxon Rank Sum tests on quantitative variables and Fisher's exact tests on categorical variables. For both Responders and Non-responders, pre-pioglitazone to post-pioglitazone initiation changes in UPCR, TIS, and serum albumin levels were analyzed using Wilcoxon Signed Rank tests. Numbers of hospitalizations pre-pioglitazone and post-pioglitazone initiation were analyzed and compared using Poisson distributions. Statistical significance was assessed at both the 0.05 and 0.10 levels. All analyses were conducted using SPSS software ver. 26 (IBM, Armonk, NY, USA).

[2] = test system: children with NS; assay: Hospitalizations, edema, hypoglycemia and side effects on pioglitazone
Excerpt: as §1

[3] = test system: children with NS; assay: Proteinuria (urine protein to creatinine ratio, UPCR) before and after addition of pioglitazone
Excerpt: as §1

[4] = Patient 1 (Responder), pre-PIO 2.5
[5] = Patient 2 (Responder), pre-PIO 2.4
[6] = Patient 3 (Responder), pre-PIO 1.7
[7] = Patient 5 (Non-responder), pre-PIO 4.4
[8] = Patient 6 (Responder), pre-PIO 4.5
[9] = Patient 7 (Non-responder), pre-PIO 2.9
[10] = Patient 8 (Responder), pre-PIO 1.2
[11] = mean of 5 Responders, pre-PIO 2.46
[12] = Patient 1 (Responder), pre-PIO 8.5
[13] = Patient 1 (Responder), vs 0-1 mo pre-PIO

Structure (SMILES): CCc1ccc(CCOc2ccc(CC3SC(=O)NC3=O)cc2)nc1 (centres unmarked) [pioglitazone]
- Post-PIO S Alb (0-1 mo; g/dL) [1, 4]: 2.9 g/dL
- Post-PIO S Alb (5-7 mo; g/dL) [1, 4]: 3.5 g/dL
- % S Alb increase (0-1 mo) ([1]; Patient 1 (Responder)): 16.0%
- % S Alb increase (5-7 mo) ([1]; Patient 1 (Responder)): 40.0%
- Post-PIO S Alb (0-1 mo; g/dL) [1, 5]: 3 g/dL
- Post-PIO S Alb (5-7 mo; g/dL) [1, 5]: 3.5 g/dL
- % S Alb increase (0-1 mo) ([1]; Patient 2 (Responder)): 25.0%
- % S Alb increase (5-7 mo) ([1]; Patient 2 (Responder)): 45.8%
- Post-PIO S Alb (0-1 mo; g/dL) [1, 6]: 2.3 g/dL
- Post-PIO S Alb (5-7 mo; g/dL) [1, 6]: 3.7 g/dL
- % S Alb increase (0-1 mo) ([1]; Patient 3 (Responder)): 35.3%
- % S Alb increase (5-7 mo) ([1]; Patient 3 (Responder)): 118%
- Post-PIO S Alb (0-1 mo; g/dL) ([1]; Patient 4 (Non-responder), pre-PIO 1.6, increase attributed to declining kidney function): 2.7 g/dL
- % S Alb increase (0-1 mo) ([1]; Patient 4 (Non-responder)): 68.8%
- Post-PIO S Alb (0-1 mo; g/dL) [1, 7]: 4.1 g/dL
- Post-PIO S Alb (5-7 mo; g/dL) [1, 7]: 4.3 g/dL
- % S Alb increase (0-1 mo) ([1]; Patient 5 (Non-responder)): −6.82%
- % S Alb increase (5-7 mo) ([1]; Patient 5 (Non-responder)): −2.27%
- Post-PIO S Alb (0-1 mo; g/dL) [1, 8]: 4.1 g/dL
- Post-PIO S Alb (5-7 mo; g/dL) [1, 8]: 4.4 g/dL
- % S Alb increase (0-1 mo) ([1]; Patient 6 (Responder)): −8.89%
- % S Alb increase (5-7 mo) ([1]; Patient 6 (Responder)): −2.22%
- Post-PIO S Alb (0-1 mo; g/dL) [1, 9]: 2.8 g/dL
- Post-PIO S Alb (5-7 mo; g/dL) [1, 9]: 3.1 g/dL
- % S Alb increase (0-1 mo) ([1]; Patient 7 (Non-responder)): −3.45%
- % S Alb increase (5-7 mo) ([1]; Patient 7 (Non-responder)): 6.90%
- Post-PIO S Alb (0-1 mo; g/dL) [1, 10]: 3.1 g/dL
- Post-PIO S Alb (5-7 mo; g/dL) [1, 10]: 3.4 g/dL
- % S Alb increase (0-1 mo) ([1]; Patient 8 (Responder)): 158%
- % S Alb increase (5-7 mo) ([1]; Patient 8 (Responder)): 183%
- serum albumin increase, range ([1]; 0-1 month post-pioglitazone): −9-158%
- mean serum albumin ([1]; 0-1 month post-pioglitazone): 3.1 g/dL
- serum albumin increase, range ([1]; 5-7 months post-pioglitazone): −2-183%
- mean serum albumin ([1]; 5-7 months post-pioglitazone): 3.7 g/dL
- % S Alb increase (0-1 mo), Mean (SEM) ([1]; mean of 5 Responders): 45% and 45.2%
- % S Alb increase (5-7 mo), Mean (SEM) ([1]; mean of 5 Responders): 77% and 76.9%
- Post-PIO S Alb (0-1 mo; g/dL), Mean (SEM) [1, 11]: 3.08 g/dL
- Post-PIO S Alb (5-7 mo; g/dL), Mean (SEM) [1, 11]: 3.7 g/dL
- % S Alb increase (0-1 mo), Mean (SEM) ([1]; mean of Non-responders): 19.5%
- Post-PIO S Alb (5-7 mo; g/dL), Mean (SEM) ([1]; mean of Non-responders (Patient 4 ESRD)): 3.7 g/dL
- % S Alb increase (5-7 mo), Mean (SEM) ([1]; mean of Non-responders (without Patient 4)): 2.31%
- Post-PIO S Alb (0-1 mo; g/dL), Mean (SEM) ([1]; mean of Non-responders, pre-PIO 2.97): 3.2 g/dL
- required hospitalizations ([2]; 5 Responders, post-pioglitazone, 11 pre-pioglitazone): none
- side effects attributable to pioglitazone ([2]; Patient 1, 7-month PIO treatment, 15 then 30 mg QD): No side effects attributable to pioglitazone were noted
- side effects attributable to pioglitazone ([2]; Patient 2, 4-month treatment, 15 mg QD): no side effects attributable to pioglitazone noted
- side effects attributable to pioglitazone ([2]; Patient 3, 19-month course): No side effects attributable to pioglitazone were noted
- side effects attributable to pioglitazone ([2]; Patient 4, 3 weeks of treatment, 7.5 mg QD): no side effects attributable to pioglitazone were noted
- side effects attributable to pioglitazone ([2]; Patient 5, 2.5 years, 45 mg QD): No side effects attributable to pioglitazone were noted
- side effects attributable to pioglitazone ([2]; Patient 6, 5-year course, 30 mg QD): No side effects attributable to pioglitazone were noted
- side effects (reason for stopping pioglitazone) ([2]; Patient 7, 6 months, 15 then 30 mg QD): concerns of possible association with new-onset bruising, which resolved
- side effects attributable to pioglitazone ([2]; Patient 8, 30-week course, 30 mg QD): No side effects attributable to pioglitazone were noted
- reductions in hospitalizations for IV albumin infusions and diuresis ([2]; Responders): 100%
- children with worsening edema after pioglitazone introduction ([2]; all 8 patients): 0%
- hospitalizations for IV albumin infusions to manage NS-related edema ([2]; all 8 patients, 5-7 months post-pioglitazone, 13 in the 5-7 months pre-pioglitazone): 1
- adverse events attributable to pioglitazone ([2]; all patients, collective 136 months of drug exposure): no patients experienced any adverse events attributable to pioglitazone
- pioglitazone-related hypoglycemia ([2]; all patients, observation period): no children with NS were noted to have pioglitazone-related hypoglycemia
- UPCR in Responders, range ([3]; 5-7 months post-pioglitazone): 0.06 to 0.5 mg/mg
- Patients with prompt and significant reductions in proteinuria (Responders) ([3]; Five of 8 pioglitazone-treated patients, UPCR decrease 0-1 mo pre- to 0-1 mo post-pioglitazone): 63%
- Post-PIO UPCR (0-1 mo; mg/mg) [3, 12]: 4 mg/mg
- Post-PIO UPCR (5-7 mo; mg/mg) [3, 12]: 0.2 mg/mg
- % UPCR Reduction (0-1 mo) [3, 13]: 53% and 52.9%
- % UPCR Reduction (5-7 mo) [3, 13]: 98% and 97.6%
